Where two headings read alike, the source gives them in different places.
Tests used:
[1] = Metabolic stability in liver microsomes (MLM); assay type: in vitro ADME, mice; details: 0.25 mg/mL protein; for half-life at 1 μM: mouse, liver microsomes, pH 7.4, 1 μM compound, read-out: T1/2 in mins (MLM); for Met Stab % (60 mins) MLM: percent remaining at 60 min, 1 μM compound, 1 mM NADPH
Experimental: Preparation of Potassium Phosphate Buffer, 50 mM (pH 7.4)
Potassium phosphate buffer (Kphos) was prepared by adding 0.647 g potassium phosphate monobasic (KH2PO4) and 3.527 g potassium phosphate dibasic (KH2PO4) to 400 mL of Milli-Q™ water. pH of the buffer was adjusted to 7.4 and volume was made up to 500 mL.
Preparation of Microsomes
Stock solutions of BRN2 inhibitors were prepared in DMSO at a concentration of 1 mM
Preparation of NADPH Solution
• Total Incubation volume: 100 μL • Compound concentration: 1 μM • Protein Concentration: 0.25 mg/mL • NADPH: 1 mM • Final DMSO contain: 0.1% • Number of replicates: 2 • Time points: 0, 5, 15, 30 and 60 min
From the above mix, 70 μL was added to individual wells of 96 well reaction plates and pre-incubated in a 37° C. water bath for 5 min. […] Reactions without NADPH and buffer controls (minus NADPH) at 0 min and 60 min were also incubated to rule out non-NADPH metabolism or chemical instability in the incubation buffer. All reactions were terminated using 100 μL of ice-cold acetonitrile containing internal standard at 0, 5, 15, 30 and 60 min.
Samples were monitored for parent compounds disappearance in MRM mode using LC-MS/MS.
The percent remaining of test compounds and positive control in each sample was determined by considering peak area ratio in the 0 minute sample as 100%. The Half-life of compounds in microsomes is calculated by formula: […]
In vitro intrinsic clearance (CL'int) (units in mL/min/kg) was calculated using the formula.
[formula] • For liver microsomes, scaling factor used was 45 mg microsomal protein per gm liver. • * Indicates liver weight (gm) which varies species wise. For mice the liver weights are 90 gm.

42D^ENZR cells = test: Cell proliferation, BRN2 expressing 42D cells (crystal violet); assay type: cell-based; details: for Growth Specificity: 42D (express BRN2) versus 16D (no BRN2) cells, result in words
Experimental: Step 3: Cell Proliferation
Plate 42DE^NZR (˜7000 cells per well) and 16D^CRPC (˜5000 cells per well) cells in 96 well plate with a volume of 100 μL per well. • 2. Next day 1 mL aliquots of media are combined with 3× the desired concentration of compounds. The aliquots are vortexed and 50 μL of each 3× concentration is added to the 100 μL of media in each well to give the ix desired concentration.
The following are the desired concentrations:
Approximately 72 hours later, 17 μL of 10% Glutaraldehyde is added to each well and plates are placed on a shaker for 20-30 minutes. • 4. Media is washed off the fixed cells by slow submersion in a container of water. Then the water is removed by tapping the plate upside down. • 5. 75 μL of Crystal Violet™ solution is added into the 96 well plates and placed on a shaker for ˜30 minutes. • 6. Media is washed off the fixed cells by repeated slow submersion in a container of water and the plates are allowed to dry over-night. • 7. Next day, 75 μL of Sorensen Solution is accurately pipetted into each well. The plates placed on a shaker for ˜30 minutes. • 8. Absorbance is measured in the plate at 590 nm.
There is a distinction in TABLES 1 and 2 difference between “Active” and “Specific” or “Specificity”.

BRN2 = biological target: T1, BRN2 (Homo sapiens, UniProt P20265); test: BLI binding; details: result in words
T1 sequence (P20265 1-443): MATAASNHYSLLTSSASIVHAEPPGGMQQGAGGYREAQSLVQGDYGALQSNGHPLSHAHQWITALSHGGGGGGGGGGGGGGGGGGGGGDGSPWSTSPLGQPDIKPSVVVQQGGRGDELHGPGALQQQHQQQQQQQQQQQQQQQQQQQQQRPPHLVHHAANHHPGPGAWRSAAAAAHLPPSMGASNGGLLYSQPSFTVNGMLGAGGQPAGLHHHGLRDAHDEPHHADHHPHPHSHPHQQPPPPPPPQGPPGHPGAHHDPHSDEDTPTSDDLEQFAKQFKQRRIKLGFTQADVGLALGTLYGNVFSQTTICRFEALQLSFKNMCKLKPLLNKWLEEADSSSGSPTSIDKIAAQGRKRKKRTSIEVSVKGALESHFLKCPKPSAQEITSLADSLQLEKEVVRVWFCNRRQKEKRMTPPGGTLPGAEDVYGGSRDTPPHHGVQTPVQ

[2] = 42D cells, proliferation, about 72 hours, read-out: 42D IC50

SMILES | half-life at 1 μM [1] [min] | Met Stab % (60 mins) MLM [1] [%] | Growth Specificity (42D^ENZR cells; about 72 hours) | IC50 (42D^ENZR cells; [2]) [nM] | BLI binding (BRN2) | IC50 (42D^ENZR cells; read-out: IC50 (effective on both 42D and 16D cells)) [nM]
N#Cc1ccc2c(c1)C/C(=N/Nc1nc3ccccc3s1)C2=O [7-93] | 44 | 39 | Specific but weak | ~15000 | no binding | –
O=C1/C(=N\Nc2nc3ccccc3s2)Cc2c1ccc(F)c2F [7-101] | > 60 | 67 | Specific to 42D cells | 1000 to 2500 | Positive binding | –
O=C1/C(=N\Nc2nc3ccccc3s2)Cc2cc(F)cc(F)c21 [7-102] | 56 | 46 | Specific to 42D cells | ~2500 | Positive binding but not strong | –
CN(C)c1ccc2c(c1)C/C(=N/Nc1nc3ccccc3s1)C2=O [7-127] | 23 | 14 | Not specific | – | No binding | –
O=C1/C(=N\Nc2nc3ccccc3s2)Cc2cc(C3CC3)ccc21 [7-105] | > 60 | 75 | Not specific | – | No binding | –
O=C1/C(=N\Nc2nc3ccccc3s2)Cc2cc(N3CCOCC3)ccc21 [7-103] | 44 | 42 | Not specific | – | No binding | –
CCN(CC)c1ccc2c(c1)C(=O)/C(=N\Nc1nc3ccccc3s1)C2 [7-109] | 13 | 3 | Not specific | – | Positive binding | –
O=C1/C(=N\Nc2nc3ccccc3s2)Cc2cc(N3CCCCC3)ccc21 [7-112] | 32 | 26 | Not specific | – | No binding | –
Cc1ccc2c(c1)C/C(=N/Nc1nc3ccccc3s1)C2=O [7-96] | 31 | 22 | Specific but weak | ~15000 | inconclusive, needs to be repeated | –
O=C1/C(=N\Nc2nc3ccccc3s2)Nc2cc(F)ccc21 [7-123] | 25 | 18 | Not specific | – | No binding | –
O=C1/C(=N\Nc2nc3ccccc3s2)Nc2ccccc21 [7-95] | > 60 | 69 | Specific but weak | ~15000 | Positive binding | –
O=C1/C(=N\Nc2nc3ccccc3s2)Nc2cc(Br)ccc21 [7-116] | > 60 | 64 | Not specific | – | No binding | –
CN1/C(=N/Nc2nc3ccccc3s2)C(=O)c2ccccc21 [7-114] | 44 | 40 | precipitates | – | No binding | –
O=C1C/C(=N/Nc2nc3ccccc3s2)c2ccccc21 [7-52] | 23 | 9 | effective on both 42D and 16D cells | – | Positive | 3000 to 7000
O=C1/C(=N\Nc2nc3ccccc3s2)Cc2c1cccc2C(F)(F)F [7-91] | > 60 | 67 | Specific to 42D | ~2000 | Positive binding | –
O=C1/C(=N\Nc2nc3ccccc3s2)Cc2cccc(C(F)(F)F)c21 [7-106] | 46 | 38 | Specific to 42D cells | ~2000 | Positive binding | –
O=C1/C(=N\Nc2nc3ccccc3s2)Cc2cc(F)c(F)cc21 [7-97] | > 60 | 69 | Specific to 42D | ~2000 | Positive binding | –
CN1C(=O)/C(=N/Nc2nc3ccccc3s2)c2ccccc21 [7-115] | 7 | 2 | Not specific | – | No binding | –
COC(=O)c1ccc2c(c1)C(=O)/C(=N\Nc1nc3ccccc3s1)C2 [7-110] | 32 | 25 | No activity | – | No binding | –
Nc1ccc2c(c1)C/C(=N/Nc1nc3ccccc3s1)C2=O [7-120] | 24 | 17 | Not specific | – | No binding | –
O=C1/C(=N\Nc2nc3ccccc3s2)Cc2cc(N3CCC3)ccc21 [7-113] | 15 | 6 | precipitates | – | No binding | –
O=C1/C(=N\Nc2nc3ccccc3s2)Cc2cc(Br)ccc21 [7-94] | > 60 | 50 | Specific to 42D | ~2000 | Positive binding | –

Source: patent US20250205204A1, “Transcription Factor Brn2 Inhibitory Compounds for Use as Therapeutics” (The University of British Columbia, priority 2021, published 2025)
